Test results taken from patent US6914045B2, “Glycopeptide antibiotics” (Wyeth Holdings Corporation, priority 2001, dated 2005).
Values after ≈ are worked out from the molar mass of the structure shown.

Tests used:
Assay in all cases: in vitro antibacterial evaluation, MIC by broth dilution
Assay type in all cases: cell-based
Enterococcus sp. = conditions: broth dilution, 18 hours at 35° C.
Outline: (§1)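 Broth dilution per NCCLS M7-A2 in Mueller-Hinton II medium, inoculum 5×10^5 CFU/mL, antibiotic range 64-0.06 μg/mL. MIC taken as lowest concentration inhibiting growth; Gram-positive panel includes recent clinical isolates resistant to methicillin, penicillin and/or vancomycin.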

Staphylococcus sp. = conditions: broth dilution, 18 hours at 35° C.
Outline: as §1

Streptococcus sp. = conditions: broth dilution, 18 hours at 35° C.
Outline: as §1

Escherichia coli = conditions: 18 hours at 35° C.

MIC Enterococcus avium (GC 4558) (Enterococcus sp.): 64 µg/mL (≈ 43.8 µM)
MIC Enterococcus faecalis (ATCC 29212) (Enterococcus sp.): 128 µg/mL (≈ 87.7 µM)
MIC Enterococcus faecalis (GC 2242) (Enterococcus sp.): 128 µg/mL (≈ 87.7 µM)
MIC Enterococcus faecalis (GC 2691) (Enterococcus sp.): 128 µg/mL (≈ 87.7 µM)
MIC Enterococcus faecalis (GC 3059) (Enterococcus sp.): 128 µg/mL (≈ 87.7 µM)
MIC Enterococcus faecalis (GC 4552) (Enterococcus sp.): 128 µg/mL (≈ 87.7 µM)
MIC Enterococcus faecalis (GC 4553) (Enterococcus sp.): 128 µg/mL (≈ 87.7 µM)
MIC Enterococcus faecalis (GC 4554) (Enterococcus sp.): >128 µg/mL
MIC Enterococcus faecalis (GC 6189) (Enterococcus sp.): 128 µg/mL (≈ 87.7 µM)
MIC Enterococcus faecium (GC 2243) (Enterococcus sp.): 128 µg/mL (≈ 87.7 µM)
MIC Enterococcus faecium (GC 4556) (Enterococcus sp.): 128 µg/mL (≈ 87.7 µM)
MIC Enterococcus faecium (GC 4557) (Enterococcus sp.): 32 µg/mL (≈ 21.9 µM)
MIC Enterococcus faecalis (ATCC 29212) (Enterococcus sp.; strain ATCC 29212): 128 µg/mL (≈ 87.7 µM)
MIC Enterococcus faecalis (GC 2242) (Enterococcus sp.; strain GC 2242): 128 µg/mL (≈ 87.7 µM)
MIC Enterococcus faecium (GC 2243) (Enterococcus sp.; strain GC 2243): 128 µg/mL (≈ 87.7 µM)
MIC Enterococcus faecalis (GC 2691) (Enterococcus sp.; strain GC 2691): 128 µg/mL (≈ 87.7 µM)
MIC Enterococcus faecalis (GC 3059) (Enterococcus sp.; strain GC 3059): 128 µg/mL (≈ 87.7 µM)
MIC Enterococcus faecalis (GC 4552) (Enterococcus sp.; strain GC 4552): 128 µg/mL (≈ 87.7 µM)
MIC Enterococcus faecalis (GC 4553) (Enterococcus sp.; strain GC 4553): 128 µg/mL (≈ 87.7 µM)
MIC Enterococcus faecalis (GC 4554) (Enterococcus sp.; strain GC 4554): >128 µg/mL
MIC Enterococcus faecium (GC 4556) (Enterococcus sp.; strain GC 4556): 128 µg/mL (≈ 87.7 µM)
MIC Enterococcus faecium (GC 4557) (Enterococcus sp.; strain GC 4557): 32 µg/mL (≈ 21.9 µM)
MIC Enterococcus avium (GC 4558) (Enterococcus sp.; strain GC 4558): 64 µg/mL (≈ 43.8 µM)
MIC Enterococcus faecalis (GC 6189) (Enterococcus sp.; strain GC 6189): 128 µg/mL (≈ 87.7 µM)
MIC Coagulase Negative Staphylococcus (GC 4547) (Staphylococcus sp.): 64 µg/mL (≈ 43.8 µM)
MIC Coagulase Negative Staphylococcus (GC 4548) (Staphylococcus sp.): 64 µg/mL (≈ 43.8 µM)
MIC Coagulase Negative Staphylococcus (GC 4549) (Staphylococcus sp.): 32 µg/mL (≈ 21.9 µM)
MIC Coagulase Negative Staphylococcus (GC 4551) (Staphylococcus sp.): 64 µg/mL (≈ 43.8 µM)
MIC Coagulase Negative Staphylococcus (GC 6257) (Staphylococcus sp.): 64 µg/mL (≈ 43.8 µM)
MIC Staphylococcus aureus (ATCC 29213) (Staphylococcus sp.): 64 µg/mL (≈ 43.8 µM)
MIC Staphylococcus aureus (GC 1131) (Staphylococcus sp.): 128 µg/mL (≈ 87.7 µM)
MIC Staphylococcus aureus (GC 3051) (Staphylococcus sp.): 64 µg/mL (≈ 43.8 µM)
MIC Staphylococcus aureus (GC 3053) (Staphylococcus sp.): 128 µg/mL (≈ 87.7 µM)
MIC Staphylococcus aureus (GC 4541) (Staphylococcus sp.): 64 µg/mL (≈ 43.8 µM)
MIC Staphylococcus aureus (GC 4542) (Staphylococcus sp.): 64 µg/mL (≈ 43.8 µM)
MIC Staphylococcus aureus (GC 4544) (Staphylococcus sp.): 64 µg/mL (≈ 43.8 µM)
MIC Staphylococcus aureus (GC 4545) (Staphylococcus sp.): 64 µg/mL (≈ 43.8 µM)
MIC Staphylococcus aureus-SMITH (GC 4543) (Staphylococcus sp.): 64 µg/mL (≈ 43.8 µM)
MIC Staphylococcus aureus (ATCC 29213) (Staphylococcus sp.; strain ATCC 29213): 64 µg/mL (≈ 43.8 µM)
MIC Staphylococcus aureus (GC 1131) (Staphylococcus sp.; strain GC 1131): 128 µg/mL (≈ 87.7 µM)
MIC Staphylococcus aureus (GC 3051) (Staphylococcus sp.; strain GC 3051): 64 µg/mL (≈ 43.8 µM)
MIC Staphylococcus aureus (GC 3053) (Staphylococcus sp.; strain GC 3053): 128 µg/mL (≈ 87.7 µM)
MIC Staphylococcus aureus (GC 4541) (Staphylococcus sp.; strain GC 4541): 64 µg/mL (≈ 43.8 µM)
MIC Staphylococcus aureus (GC 4542) (Staphylococcus sp.; strain GC 4542): 64 µg/mL (≈ 43.8 µM)
MIC Staphylococcus aureus-SMITH (GC 4543) (Staphylococcus sp.; strain GC 4543): 64 µg/mL (≈ 43.8 µM)
MIC Staphylococcus aureus (GC 4544) (Staphylococcus sp.; strain GC 4544): 64 µg/mL (≈ 43.8 µM)
MIC Staphylococcus aureus (GC 4545) (Staphylococcus sp.; strain GC 4545): 64 µg/mL (≈ 43.8 µM)
MIC Coagulase Negative Staphylococcus (GC 4547) (Staphylococcus sp.; strain GC 4547): 64 µg/mL (≈ 43.8 µM)
MIC Coagulase Negative Staphylococcus (GC 4548) (Staphylococcus sp.; strain GC 4548): 64 µg/mL (≈ 43.8 µM)
MIC Coagulase Negative Staphylococcus (GC 4549) (Staphylococcus sp.; strain GC 4549): 32 µg/mL (≈ 21.9 µM)
MIC Coagulase Negative Staphylococcus (GC 4551) (Staphylococcus sp.; strain GC 4551): 64 µg/mL (≈ 43.8 µM)
MIC Coagulase Negative Staphylococcus (GC 6257) (Staphylococcus sp.; strain GC 6257): 64 µg/mL (≈ 43.8 µM)
MIC Streptococcus agalactiae (GC 4564) (Streptococcus sp.): 64 µg/mL (≈ 43.8 µM)
MIC Streptococcus pneumoniae (ATCC 6301) (Streptococcus sp.): 32 µg/mL (≈ 21.9 µM)
MIC Streptococcus pneumoniae (GC 1894) (Streptococcus sp.): 32 µg/mL (≈ 21.9 µM)
MIC Streptococcus pneumoniae (GC 4565) (Streptococcus sp.): 64 µg/mL (≈ 43.8 µM)
MIC Streptococcus pyogenes (GC 4563) (Streptococcus sp.): 64 µg/mL (≈ 43.8 µM)
MIC Streptococcus pneumoniae (ATCC 6301) (Streptococcus sp.; strain ATCC 6301): 32 µg/mL (≈ 21.9 µM)
MIC Streptococcus pneumoniae (GC 1894) (Streptococcus sp.; strain GC 1894): 32 µg/mL (≈ 21.9 µM)
MIC Streptococcus pyogenes (GC 4563) (Streptococcus sp.; strain GC 4563): 64 µg/mL (≈ 43.8 µM)
MIC Streptococcus agalactiae (GC 4564) (Streptococcus sp.; strain GC 4564): 64 µg/mL (≈ 43.8 µM)
MIC Streptococcus pneumoniae (GC 4565) (Streptococcus sp.; strain GC 4565): 64 µg/mL (≈ 43.8 µM)
MIC Escherichia coli (ATCC 25922) (Escherichia coli): >128 µg/mL
MIC Escherichia coli (GC 4559) (Escherichia coli): >128 µg/mL
MIC Escherichia coli (GC 4560) (Escherichia coli): 32 µg/mL (≈ 21.9 µM)
Compound: CC(c1ccccc1)C1NC(=O)CNC(=O)C(CO)NC(=O)C(CC2CNC(=N)N2C2OC(CO)C(O)C(O)C2O)NC(=O)C(CC2CNC(=N)N2)NC(=O)C(Cc2ccc(OC3OC(CO)C(OC4OC(CO)C(O)C(OCc5ccc(OCc6ccccc6)cc5)C4O)C(O)C3O)cc2)NC1=O (stereo not shown) [Example 246b]
MIC Staphylococcus haemolyticus (GC 4546) (Staphylococcus sp.): 128 µg/mL (≈ 87.7 µM)
MIC Staphylococcus haemolyticus (GC 4546) (Staphylococcus sp.; strain GC 4546): 128 µg/mL (≈ 87.7 µM)
